# According to patent US6849661B2, “Treatment of abnormal increases in gastrointestinal motility with (R)-verapamil” (AGI Therapeutics, Ltd., priority 2002, dated 2005):
# “And” between values parts separate entries of the source, which are not always exact repeats. Equal values may be shown once. Read-outs that look alike come from different tables or passages of the source.
# Assays:
# [1] = tested on: rat vas prostatic tissue; assay: Contractions to electrical stimulation in rat vas deferens, prostatic portion; type: cell-based; conditions: FIG. 3
# Source text: (§1) In rat vas deferens there are two components to nerve stimulation, an […] component, dominant in the epididymal portion, and a non-adrenergic (purinergic) component, dominant in the prostatic portion. […] (Brown et al., Br J Pharmacol., 79:379-393, 1983).
# [2] = tested on: rat aortic tissue; conditions: for pIC50 (−log M), Aorta / IC50: KCl 80 mM contracted rat aorta; for IC50: read-out: IC50 (M), Aorta
# Procedure: (§2) Rat aortic tissue was prepared and mounted in a tissue bath by standard methods familiar to those skilled in the art. The physiological medium contained KCl at a concentration of 80 mM, which produces contractions of the aortic tissue.
# [3] = tested on: rat vas epididymal tissue; assay: Contractions in rat vas deferens, epididymal portion (in the presence of nifedipine); type: cell-based; conditions: high concentrations, FIG. 3
# Source text: as §1
# [4] = tested on: rat colon tissue; assay: Relaxation of KCl (80 mM)-induced contractions in rat colon tissue (tissue bath); type: cell-based; conditions: for IC50 / pIC50 (−log M), Colon: KCl 80 mM contracted rat colon
# Procedure: as §2, with “colon” for “aortic”, “tissue. […] Potency was expressed as the concentration producing 50% of […] (IC50) or as the negative logarithm of the IC50 (pIC50).” for “tissue.”
# Other compounds were tested for their ability to relax the KCl contractions, or block the relaxing action of verapamil.
SMILES,effect on contractions to electrical stimulation in vas prostatic tissue [1],"pIC50 (−log M), Aorta [2]",IC50 [2],effect on epididymal contraction [3],IC50 [4] [nM],"pIC50 (−log M), Colon [4]",ability to relax the KCl contractions ([4]; rat colon),further results
COc1ccc(CCN(C)CCC[C@](C#N)(c2ccc(OC)c(OC)c2)C(C)C)cc1OC [(R)-verapamil],neither (R)-verapamil nor (S)-verapamil abolished contractions,5.35±0.24 −log M,4.47e-06 M and 4.78e-06 M,reduced this epididymal contraction,851,6.07±0.16 −log M,,"pIC50 (−log M), Aorta ([2]; listed as R Isomer): 5.35 −log M; times less potent than (S)-verapamil in the aorta ([2]; rat aorta): 10 times; IC50 ([2]; listed as R Isomer): 4.47e-06 M; pIC50 (−log M), Colon ([4]; listed as R Isomer): 6.07 −log M; times less potent than (S)-verapamil in the intestine ([4]; rat colon): three"
Cc1cccc(C)c1N=C1NCCCS1 [Xylazine],,,,,,,"small relaxation of the contractions, but only at the highest concentration tested (10^−4M)",
COc1cc2nc(N3CCN(C(=O)c4ccco4)CC3)nc(N)c2cc1OC [Prazosin],,,,,,,did not significantly relax KCl contractions,
COc1ccc(Cl)cc1C(=O)NCCc1ccc(S(=O)(=O)NC(=O)NC2CCCCC2)cc1 [Glibenclamine],,,,,,,,ability to block the relaxing action of verapamil on KCl contractions ([4]; rat colon): did not block the verapamil-induced relaxations
COc1ccc(CCN(C)CCC[C@@](C#N)(c2ccc(OC)c(OC)c2)C(C)C)cc1OC [(S)-verapamil],neither (R)-verapamil nor (S)-verapamil abolished contractions,6.32±0.03 −log M,4.78e-07 M,reduced this epididymal contraction,295,6.53±0.13 −log M and 6.32±0.03 −log M,,"times more potent than (R)-verapamil in colon ([4]; rat colon, concentrations tested 1-100 μM): approximately 3 times"
